Data from the supplement of paper PMC10307832.

Experiments:
Assay in all cases: relative viability (nuclei count vs DMSO), 5 days (fraction); higher = more cells survive
[1] = test system: SW 1573
Outline: (§1)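 Lung cancer cell lines, seeded in 1536-well plates, were treated the following day by pin tool with a single drug or with five library-drug doses (not always all listed) in √10 steps on top of a fixed anchor-drug dose. Cells were fixed and nuclei stained in one step after 5 days, and nuclei were counted. Relative viability is the nuclei count for treated wells divided by that for vehicle wells, reported as medians of duplicate plates.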

[2] = test system: LK-2
Outline: as §1

[3] = test system: NCI-H23
Outline: as §1

[4] = test system: NCI-H2085
Outline: as §1

[5] = test system: SW 900
Outline: as §1

[6] = test system: HCC-78
Outline: as §1

[7] = test system: LXF-289
Outline: as §1

[8] = test system: NCI-H2126
Outline: as §1

[9] = test system: EMC-BAC-2
Outline: as §1

[10] = test system: RERF-LC-KJ
Outline: as §1

[11] = test system: NCI-H3122
Outline: as §1

[12] = test system: LOU-NH91
Outline: as §1

[13] = test system: SK-LU-1
Outline: as §1

[14] = test system: LCLC-103H
Outline: as §1

[15] = test system: EPLC-272H
Outline: as §1

[16] = test system: NCI-H2405
Outline: as §1

[17] = test system: NCI-H322M
Outline: as §1

[18] = test system: HCC-827
Outline: as §1

[19] = test system: NCI-H1563
Outline: as §1

[20] = test system: NCI-H1975
Outline: as §1

[21] = test system: ChaGo-K-1
Outline: as §1

[22] = test system: LU99A
Outline: as §1

[23] = test system: NCI-H1666
Outline: as §1

CC1(C)CCC(c2ccc(Cl)cc2)=C(CN2CCN(c3ccc(C(=O)NS(=O)(=O)c4ccc(N[C@H](CCN5CCOCC5)CSc5ccccc5)c(S(=O)(=O)C(F)(F)F)c4)cc3)CC2)C1 [Navitoclax] + Nc1nc2[nH]cc(CCc3ccc(C(=O)N[C@@H](CCC(=O)O)C(=O)O)cc3)c2c(=O)[nH]1 [Pemetrexed] (partner 0.2 µM)
relative viability ([1]; first compound 0.005 µM): 0.925 | relative viability ([1]; first compound 0.01581 µM): 0.773 | relative viability ([1]; first compound 0.05 µM): 0.787 | relative viability ([1]; first compound 0.1581 µM): 0.751 | relative viability ([1]; first compound 0.5 µM): 0.801 | relative viability ([2]; first compound 0.005 µM): 0.35 | relative viability ([2]; first compound 0.01581 µM): 0.244 | relative viability ([2]; first compound 0.05 µM): 0.281 | relative viability ([2]; first compound 0.1581 µM): 0.332 | relative viability ([2]; first compound 0.5 µM): 0.316 | relative viability ([3]; first compound 0.005 µM): 0.594 | relative viability ([3]; first compound 0.01581 µM): 0.665 | relative viability ([3]; first compound 0.05 µM): 0.707 | relative viability ([3]; first compound 0.1581 µM): 0.603 | relative viability ([3]; first compound 0.5 µM): 0.645 | relative viability ([4]; first compound 0.005 µM): 0.812 | relative viability ([4]; first compound 0.01581 µM): 1.2 | relative viability ([4]; first compound 0.05 µM): 0.852 | relative viability ([4]; first compound 0.1581 µM): 0.931 | relative viability ([4]; first compound 0.5 µM): 0.894 | relative viability ([5]; first compound 0.005 µM): 0.471 | relative viability ([5]; first compound 0.01581 µM): 0.476 | relative viability ([5]; first compound 0.1581 µM): 0.452 | relative viability ([5]; first compound 0.5 µM): 0.441 | relative viability ([6]; first compound 0.005 µM): 0.867 | relative viability ([6]; first compound 0.01581 µM): 0.878 | relative viability ([6]; first compound 0.05 µM): 0.921 | relative viability ([6]; first compound 0.1581 µM): 0.875 | relative viability ([6]; first compound 0.5 µM): 0.777 | relative viability ([7]; first compound 0.005 µM): 0.85 | relative viability ([7]; first compound 0.01581 µM): 0.914 | relative viability ([7]; first compound 0.05 µM): 0.865 | relative viability ([7]; first compound 0.1581 µM): 0.926 | relative viability ([7]; first compound 0.5 µM): 0.852 | relative viability ([8]; first compound 0.005 µM): 0.667 | relative viability ([8]; first compound 0.01581 µM): 0.696 | relative viability ([8]; first compound 0.05 µM): 0.671 | relative viability ([8]; first compound 0.1581 µM): 0.602 | relative viability ([8]; first compound 0.5 µM): 0.624 | relative viability ([9]; first compound 0.005 µM): 0.433 | relative viability ([9]; first compound 0.01581 µM): 0.437 | relative viability ([9]; first compound 0.05 µM): 0.408 | relative viability ([9]; first compound 0.1581 µM): 0.423 | relative viability ([9]; first compound 0.5 µM): 0.419 | relative viability ([10]; first compound 0.005 µM): 0.476 | relative viability ([10]; first compound 0.01581 µM): 0.38 | relative viability ([10]; first compound 0.05 µM): 0.45 | relative viability ([10]; first compound 0.1581 µM): 0.484 | relative viability ([10]; first compound 0.5 µM): 0.496 | relative viability ([11]; first compound 0.005 µM): 0.207 | relative viability ([11]; first compound 0.01581 µM): 0.176 | relative viability ([11]; first compound 0.05 µM): 0.211 | relative viability ([11]; first compound 0.1581 µM): 0.183 | relative viability ([11]; first compound 0.5 µM): 0.209 | relative viability ([12]; first compound 0.005 µM): 0.308 | relative viability ([12]; first compound 0.01581 µM): 0.304 | relative viability ([12]; first compound 0.05 µM): 0.26 | relative viability ([12]; first compound 0.1581 µM): 0.285 | relative viability ([12]; first compound 0.5 µM): 0.219 | relative viability ([13]; first compound 0.005 µM): 0.945 | relative viability ([13]; first compound 0.01581 µM): 1.01 | relative viability ([13]; first compound 0.05 µM): 0.967 | relative viability ([13]; first compound 0.1581 µM): 0.947 | relative viability ([13]; first compound 0.5 µM): 0.819 | relative viability ([14]; first compound 0.005 µM): 0.473 | relative viability ([14]; first compound 0.01581 µM): 0.425 | relative viability ([14]; first compound 0.05 µM): 0.401 | relative viability ([14]; first compound 0.1581 µM): 0.442 | relative viability ([14]; first compound 0.5 µM): 0.368 | relative viability ([15]; first compound 0.005 µM): 0.312 | relative viability ([15]; first compound 0.01581 µM): 0.268 | relative viability ([15]; first compound 0.05 µM): 0.347 | relative viability ([15]; first compound 0.1581 µM): 0.354 | relative viability ([15]; first compound 0.5 µM): 0.343 | relative viability ([16]; first compound 0.005 µM): 1.02 | relative viability ([16]; first compound 0.01581 µM): 1.07 | relative viability ([16]; first compound 0.05 µM): 1.11 | relative viability ([16]; first compound 0.1581 µM): 0.994 | relative viability ([16]; first compound 0.5 µM): 0.896 | relative viability ([17]; first compound 0.005 µM): 0.661 | relative viability ([17]; first compound 0.01581 µM): 0.651 | relative viability ([17]; first compound 0.05 µM): 0.65 | relative viability ([17]; first compound 0.1581 µM): 0.651 | relative viability ([17]; first compound 0.5 µM): 0.649 | relative viability ([18]; first compound 0.005 µM): 0.27 | relative viability ([18]; first compound 0.01581 µM): 0.261 | relative viability ([18]; first compound 0.05 µM): 0.252 | relative viability ([18]; first compound 0.1581 µM): 0.23 | relative viability ([18]; first compound 0.5 µM): 0.258 | relative viability ([19]; first compound 0.005 µM): 0.656 | relative viability ([19]; first compound 0.01581 µM): 0.739 | relative viability ([19]; first compound 0.05 µM): 0.608 | relative viability ([19]; first compound 0.1581 µM): 0.805 | relative viability ([19]; first compound 0.5 µM): 0.861 | relative viability ([20]; first compound 0.005 µM): 0.292 | relative viability ([20]; first compound 0.01581 µM): 0.312 | relative viability ([20]; first compound 0.05 µM): 0.343 | relative viability ([20]; first compound 0.1581 µM): 0.301 | relative viability ([20]; first compound 0.5 µM): 0.299 | relative viability ([21]; first compound 0.005 µM): 0.258 | relative viability ([21]; first compound 0.01581 µM): 0.26 | relative viability ([21]; first compound 0.05 µM): 0.25 | relative viability ([21]; first compound 0.1581 µM): 0.268 | relative viability ([21]; first compound 0.5 µM): 0.265 | relative viability ([22]; first compound 0.005 µM): 0.202 | relative viability ([22]; first compound 0.01581 µM): 0.205 | relative viability ([22]; first compound 0.1581 µM): 0.196 | relative viability ([22]; first compound 0.5 µM): 0.167 | relative viability ([23]; first compound 0.005 µM): 0.867 | relative viability ([23]; first compound 0.01581 µM): 0.964 | relative viability ([23]; first compound 0.05 µM): 0.836 | relative viability ([23]; first compound 0.1581 µM): 0.831 | relative viability ([23]; first compound 0.5 µM): 0.966
